# Measurements: PMC12147761 (Journal of medicinal chemistry, 2025)
# Key:
# [1] = target: T1, CDK4/CycD1 (Homo sapiens, UniProt P11802); assay: CDK family panel, ADP-Glo; assay type: biochemical
# T1 construct: ICE Bioscience Inc. (assay service)
# Procedure: (§2) All the kinase activity were performed using an ADP-Glo kinase assay by ICE Bioscience Inc. (Beijing, China). Kinome selectivity profiles (KINOMEscan profiling) and Kd detection were performed by Eurofins DiscoveryX Corporation (San Diego, CA, USA).
# [2] = target: T2, CDK1/CycA2 (Homo sapiens, UniProt P06493); assay: CDK family panel, ADP-Glo; assay type: biochemical
# T2 construct: ICE Bioscience Inc. (assay service)
# Procedure: (§3) All the kinase activity were performed using an ADP-Glo kinase assay by ICE Bioscience Inc. (Beijing, China).
# [3] = test system: VCaP cells; assay: Cell apoptosis assay by flow cytometry; assay type: cell-based, human; details: YJZ5118 at 100 nM
# Procedure: Cells were seeded in six-well plates and incubated for 24 h at 37 °C and 5% CO2. Cells were then treated with the indicated concentrations of the tested compounds for 48 h. The treated cells then were collected, centrifuged and washed twice by cold PBS. […] Cell samples were analyzed with flow cytometry (SH800S cell sorter, Sony Biotechnology).
# [4] = target: T3, CDK9/CycK (Homo sapiens, UniProt P50750); assay: CDK family panel, ADP-Glo; assay type: biochemical
# T3 construct: ICE Bioscience Inc. (assay service)
# Procedure: as §3
# [5] = target: T4, TAOK3 (Homo sapiens, UniProt Q9H2K8); assay: ADP-Glo assay, TAOK3; assay type: biochemical; details: read-out: IC50 against TAOK3
# T4 construct: ICE Bioscience Inc. (assay service)
# [6] = target: T5, CDK18/CycY (Homo sapiens, UniProt Q07002); assay: CDK family panel, ADP-Glo; assay type: biochemical
# T5 construct: ICE Bioscience Inc. (assay service)
# Procedure: as §2
# [7] = test system: CHLA10; assay: Cell viability panel; assay type: cell-based; details: Homo sapiens, 120 h; Ewing's sarcoma cells, 5 days of treatment
# Procedure: (§1) Cells were seeded in 96-well plates and incubated at 37 °C and 5% CO2. After overnight incubation, serial dilutions of tested compounds were added to the plate. The assay was tested with Cell Titer-Glo (Promega) after 5 days. The luminescence signal was detected by the Infinite M1000 Pro plate reader (Tecan), and the IC50 values were calculated by GraphPad Prism 10.
# [8] = test system: MFM223; assay: Cell viability panel; assay type: cell-based; details: Homo sapiens, MFM-223, 120 h; breast cancer cells, 5 days of treatment
# Procedure: as §1
# [9] = test system: CB-AGPN; assay: Cell viability panel; assay type: cell-based; details: Homo sapiens, 120 h; Ewing's sarcoma cells, 5 days of treatment
# Procedure: as §1
# [10] = test system: MDA-MD-468; assay: Cell viability panel; assay type: cell-based; details: Homo sapiens, 120 h; breast cancer cells, 5 days of treatment
# Procedure: as §1
# [11] = test system: SK-BR-3; assay: Cell viability panel; assay type: cell-based; details: Homo sapiens, SK-BR-3, 120 h; breast cancer cells, 5 days of treatment
# Procedure: as §1
# [12] = test system: DU145; assay: Cell viability panel; assay type: cell-based; details: Homo sapiens, DU-145, 120 h; prostate cancer cells, 5 days of treatment
# Procedure: as §1
# [13] = test system: VCaP prostate cancer cells; assay: Cell proliferation assay (CellTiter-Glo), VCaP; assay type: cell-based, human; details: cell growth inhibition, 5 days, CellTiter-Glo
# Procedure: The kinase inhibitory activities of the compounds against CDK12 and CDK13 were preliminarily evaluated using the ADP-Glo kinase assay. Cell growth inhibition was determined in VCaP prostate cancer cells, which were characterized as being sensitive to CDK12/13 inhibition.[14]
# as §1
# [14] = target: T6, CDK8/CycC (Homo sapiens, UniProt P49336); assay: CDK family panel, ADP-Glo; assay type: biochemical
# T6 construct: ICE Bioscience Inc. (assay service)
# Procedure: as §3
# [15] = test system: normal and non-neoplastic cells; assay: Cell viability panel; assay type: cell-based, human; details: 5 days of treatment, compared with sensitive cancer cells
# Procedure: as §1
# [16] = target: T7, CDK1/CycE1 (Homo sapiens, UniProt P06493); assay: CDK family panel, ADP-Glo; assay type: biochemical
# T7 construct: ICE Bioscience Inc. (assay service)
# Procedure: as §3
# [17] = target: T8, CDK2/CycA2 (Homo sapiens, UniProt P24941); assay: CDK family panel, ADP-Glo; assay type: biochemical
# T8 construct: ICE Bioscience Inc. (assay service)
# Procedure: as §3
# [18] = target: T9, CDK15/CycY (Homo sapiens, UniProt Q96Q40); assay: CDK family panel, ADP-Glo; assay type: biochemical
# T9 construct: ICE Bioscience Inc. (assay service)
# Procedure: as §3
# [19] = target: T10, CDK3/CycE1 (Homo sapiens, UniProt Q00526); assay: CDK family panel, ADP-Glo; assay type: biochemical
# T10 construct: ICE Bioscience Inc. (assay service)
# Procedure: as §2
# [20] = target: T11, CDK19/CycC (Homo sapiens, UniProt Q9BWU1); assay: CDK family panel, ADP-Glo; assay type: biochemical
# T11 construct: ICE Bioscience Inc. (assay service)
# Procedure: as §3
# [21] = target: T12, CDK6/CycD1 (Homo sapiens, UniProt Q00534); assay: CDK family panel, ADP-Glo; assay type: biochemical
# T12 construct: ICE Bioscience Inc. (assay service)
# Procedure: as §2
# [22] = target: T13, CDK16/CycY (Homo sapiens, UniProt Q00536); assay: CDK family panel, ADP-Glo; assay type: biochemical
# T13 construct: ICE Bioscience Inc. (assay service)
# Procedure: as §3
# [23] = target: T14, CDK3/CycC (Homo sapiens, UniProt Q00526); assay: CDK family panel, ADP-Glo; assay type: biochemical
# T14 construct: ICE Bioscience Inc. (assay service)
# Procedure: as §3
# [24] = target: T15, CDK14/CycY (Homo sapiens, UniProt O94921); assay: CDK family panel, ADP-Glo; assay type: biochemical
# T15 construct: ICE Bioscience Inc. (assay service)
# Procedure: as §3
# [25] = test system: VCaP CRPC xenograft; assay: In vivo efficacy, VCaP CRPC mouse model; parameters: species or system mice; details: YJZ5118 i.p., q.d., uprosertib p.o., 5x/week, 27 days, compared to vehicle
# Procedure: All the animal experiments were performed under an approved animal protocol (Protocol ID: PRO00010006, PI, Arul Chinnaiyan) by the Institutional Animal Care & Use Committee of the University of Michigan. Six- to eight-week-old NSG (Jackson Laboratory) or CB17SCID female (Charles River Laboratory) mice were in a regular SPF housing room prior to cell injection. Briefly, 5 ×10^6 cells of VCaP CRPC were injected […] of NSG or CB17SCID mice, respectively. After tumor size reached approximately 200–400 mm^3, animals were subjected to drug treatment. […] Vehicle consisted of 20% PEG400, 6% Cremophor EL, and 74% PBS solution. Tumors were collected at the end of the experiment for Western blot analysis.
# [26] = test system: VCaP cells; assay: Washout experiment, cell growth; assay type: cell-based, human; details: VCaP cells treated 6 h, compound removed, 5 days in compound-free media
# Procedure: The previously reported reversible inhibitor 10 was included for comparison. VCaP cells were treated with the compounds for 6 h, after which the compounds were removed, and the cells were cultured in compound-free media for 5 days.
# [27] = target: T16, CDK9/CycT1 (Homo sapiens, UniProt P50750); assay: CDK family panel, ADP-Glo; assay type: biochemical
# T16 construct: ICE Bioscience Inc. (assay service)
# Procedure: as §3
# [28] = target: T17, CDK5/p25NCK (Homo sapiens, UniProt Q00535); assay: CDK family panel, ADP-Glo; assay type: biochemical
# T17 construct: ICE Bioscience Inc. (assay service)
# Procedure: as §3
# [29] = target: T18, CDK2/CycE1 (Homo sapiens, UniProt P24941); assay: CDK family panel, ADP-Glo; assay type: biochemical
# T18 construct: ICE Bioscience Inc. (assay service)
# Procedure: as §3
# T15 sequence (O94921 whole entry, species assumed): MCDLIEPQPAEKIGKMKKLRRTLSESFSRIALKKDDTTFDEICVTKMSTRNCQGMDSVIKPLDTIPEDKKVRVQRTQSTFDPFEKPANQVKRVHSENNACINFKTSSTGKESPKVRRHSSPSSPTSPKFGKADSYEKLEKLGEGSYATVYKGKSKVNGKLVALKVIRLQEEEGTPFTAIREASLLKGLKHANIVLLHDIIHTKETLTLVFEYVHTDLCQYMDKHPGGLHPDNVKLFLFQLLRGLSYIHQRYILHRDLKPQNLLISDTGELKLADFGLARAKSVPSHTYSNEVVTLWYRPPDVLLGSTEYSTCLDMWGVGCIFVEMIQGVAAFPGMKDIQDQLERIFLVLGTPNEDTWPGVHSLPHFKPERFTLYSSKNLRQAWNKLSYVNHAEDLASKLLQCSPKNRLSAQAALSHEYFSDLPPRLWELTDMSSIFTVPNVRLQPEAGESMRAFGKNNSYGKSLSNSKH
# T15 sequence (Q8ND76 whole entry partner, species assumed): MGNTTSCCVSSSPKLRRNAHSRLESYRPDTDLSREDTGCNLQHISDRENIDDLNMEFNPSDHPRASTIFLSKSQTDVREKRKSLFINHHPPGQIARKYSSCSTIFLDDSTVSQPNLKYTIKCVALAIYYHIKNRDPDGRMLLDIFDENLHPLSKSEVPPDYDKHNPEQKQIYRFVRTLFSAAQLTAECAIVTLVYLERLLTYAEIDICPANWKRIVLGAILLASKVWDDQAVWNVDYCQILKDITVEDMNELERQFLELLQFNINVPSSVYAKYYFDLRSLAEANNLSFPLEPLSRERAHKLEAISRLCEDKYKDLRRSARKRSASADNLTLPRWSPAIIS
# T17 sequence (Q00535 whole entry): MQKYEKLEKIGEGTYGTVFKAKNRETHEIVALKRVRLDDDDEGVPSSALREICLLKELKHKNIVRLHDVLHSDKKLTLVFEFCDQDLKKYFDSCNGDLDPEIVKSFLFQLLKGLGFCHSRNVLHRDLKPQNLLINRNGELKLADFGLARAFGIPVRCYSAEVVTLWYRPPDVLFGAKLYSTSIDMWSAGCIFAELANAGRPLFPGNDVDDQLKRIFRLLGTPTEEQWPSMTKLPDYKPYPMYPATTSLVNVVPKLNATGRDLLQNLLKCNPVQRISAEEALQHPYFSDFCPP
# T17 sequence (Q15078 99-307 partner): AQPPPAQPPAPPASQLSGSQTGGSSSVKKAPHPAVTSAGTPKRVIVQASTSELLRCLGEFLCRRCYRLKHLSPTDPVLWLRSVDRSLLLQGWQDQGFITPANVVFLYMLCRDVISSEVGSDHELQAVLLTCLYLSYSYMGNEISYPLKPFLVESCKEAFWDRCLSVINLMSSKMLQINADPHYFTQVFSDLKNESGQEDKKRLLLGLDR
# T13 sequence (Q00536 whole entry, species assumed): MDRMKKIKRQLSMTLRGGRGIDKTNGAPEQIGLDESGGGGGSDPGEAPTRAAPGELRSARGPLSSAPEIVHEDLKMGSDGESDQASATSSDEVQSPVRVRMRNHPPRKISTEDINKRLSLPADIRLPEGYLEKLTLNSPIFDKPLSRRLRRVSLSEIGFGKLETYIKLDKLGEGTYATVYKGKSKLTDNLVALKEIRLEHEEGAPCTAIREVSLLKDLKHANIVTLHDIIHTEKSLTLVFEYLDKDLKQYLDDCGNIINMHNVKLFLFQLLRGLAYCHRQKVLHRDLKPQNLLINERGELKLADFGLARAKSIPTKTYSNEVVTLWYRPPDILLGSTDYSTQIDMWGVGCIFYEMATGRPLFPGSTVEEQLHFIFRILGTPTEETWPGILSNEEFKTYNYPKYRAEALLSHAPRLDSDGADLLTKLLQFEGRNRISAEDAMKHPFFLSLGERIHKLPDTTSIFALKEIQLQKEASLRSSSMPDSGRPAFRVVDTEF
# T13 sequence (Q8ND76 whole entry partner, species assumed): as the sequence (Q8ND76 whole entry partner, species assumed) above
# T6 sequence (P49336 whole entry, species assumed): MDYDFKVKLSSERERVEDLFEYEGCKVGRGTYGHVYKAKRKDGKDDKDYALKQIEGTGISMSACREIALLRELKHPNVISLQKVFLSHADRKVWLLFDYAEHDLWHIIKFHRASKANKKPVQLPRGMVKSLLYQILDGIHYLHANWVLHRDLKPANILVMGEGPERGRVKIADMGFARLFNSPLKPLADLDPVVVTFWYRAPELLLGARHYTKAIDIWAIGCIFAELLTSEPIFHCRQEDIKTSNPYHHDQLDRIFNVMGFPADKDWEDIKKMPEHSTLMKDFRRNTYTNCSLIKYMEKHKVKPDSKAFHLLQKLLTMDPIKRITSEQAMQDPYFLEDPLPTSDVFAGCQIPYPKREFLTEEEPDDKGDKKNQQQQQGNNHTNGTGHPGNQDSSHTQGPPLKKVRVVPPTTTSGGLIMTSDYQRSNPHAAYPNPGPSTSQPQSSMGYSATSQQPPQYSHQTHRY
# T6 sequence (P24863 whole entry partner, species assumed): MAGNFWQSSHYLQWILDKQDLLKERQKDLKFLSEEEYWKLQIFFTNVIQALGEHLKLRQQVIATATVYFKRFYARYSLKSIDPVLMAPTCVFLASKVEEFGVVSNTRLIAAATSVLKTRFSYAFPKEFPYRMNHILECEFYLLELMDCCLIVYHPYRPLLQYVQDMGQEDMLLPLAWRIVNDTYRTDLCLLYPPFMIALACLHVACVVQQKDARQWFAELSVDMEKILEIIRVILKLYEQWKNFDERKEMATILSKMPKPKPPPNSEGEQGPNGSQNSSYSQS
# T11 sequence (Q9BWU1 whole entry, species assumed): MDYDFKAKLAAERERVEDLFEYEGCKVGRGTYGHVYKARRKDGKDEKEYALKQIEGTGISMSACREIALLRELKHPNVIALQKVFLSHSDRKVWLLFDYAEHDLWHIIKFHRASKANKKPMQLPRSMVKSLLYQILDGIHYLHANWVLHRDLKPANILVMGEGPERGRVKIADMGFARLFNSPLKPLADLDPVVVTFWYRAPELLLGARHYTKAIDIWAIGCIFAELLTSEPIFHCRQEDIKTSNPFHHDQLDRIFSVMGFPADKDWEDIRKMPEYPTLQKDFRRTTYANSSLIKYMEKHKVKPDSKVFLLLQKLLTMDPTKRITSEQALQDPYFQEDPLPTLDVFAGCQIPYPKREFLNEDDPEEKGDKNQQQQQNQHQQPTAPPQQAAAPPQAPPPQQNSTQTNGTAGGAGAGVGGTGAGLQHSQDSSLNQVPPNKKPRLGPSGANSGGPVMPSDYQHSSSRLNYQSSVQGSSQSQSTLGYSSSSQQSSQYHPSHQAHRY
# T11 sequence (P24863 whole entry partner, species assumed): as the sequence (P24863 whole entry partner, species assumed) above
# T14 sequence (Q00526 whole entry, species assumed): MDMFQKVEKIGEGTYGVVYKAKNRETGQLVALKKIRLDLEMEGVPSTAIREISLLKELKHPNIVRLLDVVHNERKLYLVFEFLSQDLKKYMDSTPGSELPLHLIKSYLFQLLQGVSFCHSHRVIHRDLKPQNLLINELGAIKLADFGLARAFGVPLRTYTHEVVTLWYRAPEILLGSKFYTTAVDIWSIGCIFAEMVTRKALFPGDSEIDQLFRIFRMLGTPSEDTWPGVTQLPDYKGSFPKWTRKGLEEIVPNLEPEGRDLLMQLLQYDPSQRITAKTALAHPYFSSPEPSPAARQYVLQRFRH
# T14 sequence (P24863 whole entry partner, species assumed): as the sequence (P24863 whole entry partner, species assumed) above
# T4 sequence (Q9H2K8 whole entry, species assumed): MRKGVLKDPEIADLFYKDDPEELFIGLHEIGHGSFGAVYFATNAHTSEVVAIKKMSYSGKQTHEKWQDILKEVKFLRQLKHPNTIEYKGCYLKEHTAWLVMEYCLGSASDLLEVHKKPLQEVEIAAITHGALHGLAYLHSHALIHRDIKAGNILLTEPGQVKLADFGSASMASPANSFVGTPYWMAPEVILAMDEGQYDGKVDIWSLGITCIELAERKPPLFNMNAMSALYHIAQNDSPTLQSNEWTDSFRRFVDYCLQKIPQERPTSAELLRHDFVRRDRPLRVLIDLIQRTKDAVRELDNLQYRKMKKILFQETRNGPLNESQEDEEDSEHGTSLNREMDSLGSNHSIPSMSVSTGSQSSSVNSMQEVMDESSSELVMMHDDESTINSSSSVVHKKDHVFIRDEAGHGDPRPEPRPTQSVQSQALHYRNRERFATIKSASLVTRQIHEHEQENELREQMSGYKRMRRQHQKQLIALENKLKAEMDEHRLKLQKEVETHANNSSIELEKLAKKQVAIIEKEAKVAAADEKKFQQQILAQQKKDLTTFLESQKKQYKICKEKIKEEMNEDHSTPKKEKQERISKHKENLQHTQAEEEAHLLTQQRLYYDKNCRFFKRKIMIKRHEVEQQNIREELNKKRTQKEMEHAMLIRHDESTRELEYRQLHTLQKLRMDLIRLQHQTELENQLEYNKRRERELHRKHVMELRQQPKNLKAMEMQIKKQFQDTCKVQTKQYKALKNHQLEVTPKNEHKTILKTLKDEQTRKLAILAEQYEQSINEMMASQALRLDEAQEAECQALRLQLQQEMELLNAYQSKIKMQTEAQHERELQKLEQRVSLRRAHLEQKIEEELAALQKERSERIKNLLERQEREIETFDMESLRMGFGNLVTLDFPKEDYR
# T5 sequence (Q07002 whole entry, species assumed): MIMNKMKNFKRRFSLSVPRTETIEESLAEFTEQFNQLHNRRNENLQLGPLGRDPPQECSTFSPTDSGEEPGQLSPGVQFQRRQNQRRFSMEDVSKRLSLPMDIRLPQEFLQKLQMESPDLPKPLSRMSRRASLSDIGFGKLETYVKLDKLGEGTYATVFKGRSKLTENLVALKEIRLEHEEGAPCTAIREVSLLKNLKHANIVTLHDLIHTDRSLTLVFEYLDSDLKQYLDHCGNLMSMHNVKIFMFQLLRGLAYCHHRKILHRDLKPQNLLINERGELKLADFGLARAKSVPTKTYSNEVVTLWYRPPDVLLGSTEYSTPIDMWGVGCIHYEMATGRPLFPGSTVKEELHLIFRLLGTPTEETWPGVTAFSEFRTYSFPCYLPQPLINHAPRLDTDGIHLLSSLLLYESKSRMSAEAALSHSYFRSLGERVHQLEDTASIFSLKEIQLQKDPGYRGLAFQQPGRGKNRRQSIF
# T5 sequence (Q8ND76 whole entry partner, species assumed): as the sequence (Q8ND76 whole entry partner, species assumed) above
structure (smiles),measurement,setting,value
"C=CC(=O)Nc1cc(N(C(=O)NCc2ccccc2)[C@H]2CC[C@H](Nc3ccc(C#N)cn3)CC2)ccc1N1CCC(N(C)C)CC1 [YJZ5118, N-(5-(3-benzyl-1-((1r,4r)-4-((5-cyanopyridin-2-yl)amino)cyclohexyl)ureido)-2-(4-(dimethylamino)piperidin-1-yl)phenyl)acrylamide]",IC50,[1],3390 nM
same,IC50,[2],> 10000 nM
same,apoptosis rate,[3],28.5%
same,IC50,[4],7160 nM
same,IC50,[5],> 10 µM
same,IC50,[6],> 10000 nM
same,IC50,[7],< 0.04 µM
same,IC50,[8],< 0.04 µM
same,IC50,[9],< 0.04 µM
same,IC50,[10],< 0.04 µM
same,IC50,[11],< 0.04 µM
same,IC50,[12],< 0.04 µM
same,IC50,"[13]; Homo sapiens, VCaP, 120 h",< 40 nM
same,IC50,[13]; listed as 14k (YJZ5118),23.7 nM
same,IC50,[14],> 10000 nM
same,sensitivity of normal and non-neoplastic cells,[15],much lower sensitive
same,IC50,[16],> 10000 nM
same,IC50,[17],> 10000 nM
same,IC50,[18],> 10000 nM
same,IC50,[19],> 10000 nM
same,IC50,[20],> 10000 nM
same,IC50,[21],4480 nM
same,IC50,[22],> 10000 nM
same,IC50,[23],> 10000 nM
same,IC50,[24],> 10000 nM
same,tumor growth,[25],significant reduction in tumor growth
same,cell growth inhibitory effect after washout,[26],maintained potent antiproliferative activity
same,IC50,[27],4910 nM
same,IC50,[28],> 10000 nM
same,IC50,[29],> 10000 nM
